From patent US20250000877A1, “COMPOSITION CONTAINING TAURODEOXYCHOLIC ACID OR PHARMACEUTICALLY ACCEPTABLE SALT THEREOF AS ACTIVE INGREDIENT FOR PREVENTING OR TREATING VIRAL INFECTIOUS DISEASES” (SHAPERON INC., priority 2021, published 2025)
Like-named read-outs stand apart in the source and are kept apart here.

Tests used:
[1] = test system: IL-1β; type: in vivo, mice
[2] = test system: influenza virus CA04 (human H1N1); assay: Lung lesions / histopathological scoring in influenza virus-infected animal model; type: in vivo, mice; details: for pathological scoring of lung lesions: score 0-4 per Table 2
Procedure: Specifically, female BLAB/C mice aged 7 weeks were purchased and allowed to acclimate for one week before the experiments commenced. The experimental animals were housed under conditions of 22±2° C. temperature, 55±5% relative humidity, and a 12-hour light-dark cycle. Water was provided ad libitum, and sterilized feed was freely accessible.
Next, as shown in the schematic diagram of FIG. 1, influenza virus CA04 (human H1N1) was intranasally inoculated at a concentration of 2LD50 (30 μl/mouse), and the drug was administered by dividing into four groups as shown in [Table 1] below. The positive control group was administered dexamethasone, an anti-inflammatory drug, as a drug, and the experimental group was administered HY209 as a low dose (1 mpk) or a high dose (4 mpk) as a drug. The drug was administered intraperitoneally at a dose of 100 μl/mouse on the third day after virus infection. In addition, lung tissues were separated and stored after autopsy of each group on the 7th day (7 dpi), 10th day (10 dpi), and 11th day (11 dpi) of virus infection.
Specifically, each of the test groups of Example 1 was autopsied on the 7th day (7 dpi), 10th day (10 dpi), and 11th day (11 dpi) of viral infection, and then the lungs were separated. The separated lung lesions were visually confirmed (FIGS. 3a to 3c), and lung lesions were scored according to the pathological scoring criteria of Table 2 below, and then graphed (FIGS. 4a and 4b).

[3] = 7 dpi, 1 mpk intraperitoneally from DPI 3, virus infection group G1 2.8±0.84
[4] = 11 dpi, 1 mpk intraperitoneally from DPI 3, virus infection group G1 4±0

SMILES	IL-1β levels ([1]; […], serum samples, HY209 1 mpk (G3) vs G1)	production of inflammatory cytokine IL-1β in the lungs ([1]; mouse, in vivo)	IL-1β levels in lung tissue samples ([1]; mouse, in vivo, 1 mg/kg)	IL-1β levels in lung tissue samples ([1]; mouse, in vivo, 4 mg/kg)	pathological scoring of lung lesions [2, 3]	reduction in pathological scores compared to the virus infection group (G1) ([2]; 7 dpi, 4 mpk (G4), P=0.046)	pathological scoring of lung lesions ([2]; 7 dpi, 4 mpk intraperitoneally from DPI 3, virus infection group G1 2.8±0.84)	reduction in pathological scores compared to the virus infection group (G1) ([2]; 11 dpi, 1 mpk (G2 P=0.002, G3 P=0.013))	pathological scoring of lung lesions [2, 4]	reduction in pathological scores compared to the virus infection group (G1) ([2]; 11 dpi, 4 mpk (G4), P=0.0005)	pathological scoring of lung lesions ([2]; 11 dpi, 4 mpk intraperitoneally from DPI 3, virus infection group G1 4±0)	production of inflammatory cells in the lungs ([2]; low (1 mpk) or high (4 mpk) dose groups compared to the virus infection group, summary statement)
C[C@H](CCC(=O)NCCS(=O)(=O)O)[C@H]1CC[C@H]2[C@@H]3CC[C@@H]4C[C@H](O)CC[C@]4(C)[C@H]3C[C@H](O)[C@]12C [HY209, Sodium taurodeoxycholate]	significant decrease	reduced	significant decrease	significant decrease	2.6±0.55	statistically significant reduction	1.8±0.45	statistically significant reduction	2.8±0.84	statistically significant reduction	2.29±0.76	reduced
C[C@@H]1C[C@H]2[C@@H]3CCC4=CC(=O)C=C[C@]4(C)[C@@]3(F)[C@@H](O)C[C@]2(C)[C@@]1(O)C(=O)CO [dexamethasone, reference compound]					1.8±0.45				2.5±0.71			
